In patent publication US9439903B2, “Process for the preparation of amorphous imatinib mesylate” (CADILA HEALTHCARE LIMITED, priority 2012, dated 2016):
Structures can show the parent of a compound that is named as a salt.

How the values were obtained:
Assay type in all cases: physicochemical
[1] = Stability of amorphous imatinib mesylate, accelerated storage 40° C./75% RH; conditions: 40° C. ± 2° C./75% ± 5% RH (Accelerated)
Method: (§1) The amorphous imatinib mesylate having less than 2.0% water, in particular, having less than 1.7% water, more particularly, water content is in the range of 0.7% to 1.7% as manufactured by the process of the present invention was subjected to stability for at least 6 months at 25° C./60% RH or at about 40° C./75% RH. The following Table-1 and Tabel-2 discloses the stability conditions and results.

[2] = Hygroscopicity as per Ph. Eur. general chapter 5.11
From the text: In one general aspect, the amorphous imatinib mesylate was subjected to study the hygroscopicity as per the Ph. Eur. general chapter 5.11.

[3] = Stability of amorphous imatinib mesylate, real time storage 25° C./60% RH; conditions: 25° C. ± 2° C./60% ± 5% RH (Real time)
Method: as §1

Description ([1]; 1 Month): Pale yellow
Related substance (%) by HPLC: Impurity-AMPPP ([1]; 1 Month): BQL
Related substance (%) by HPLC: Impurity-MPMBA ([1]; 1 Month): BQL
Related substance (%) by HPLC: Impurity-Methyl Ester analouge ([1]; 1 Month): BQL
Related substance (%) by HPLC: Impurity-NMPPP ([1]; 1 Month): BQL
Related substance (%) by HPLC: Single largest unknown Imp ([1]; 1 Month): 0.03%
Related substance (%) by HPLC: Total Impurities ([1]; 1 Month): 0.04%
Water (%) ([1]; 1 Month): 0.88%
X-Ray Diffraction ([1]; 1 Month): Amorphous
Description ([1]; 2 Month): Pale yellow
Related substance (%) by HPLC: Impurity-AMPPP ([1]; 2 Month): BQL
Related substance (%) by HPLC: Impurity-MPMBA ([1]; 2 Month): BQL
Related substance (%) by HPLC: Impurity-Methyl Ester analouge ([1]; 2 Month): BQL
Related substance (%) by HPLC: Impurity-NMPPP ([1]; 2 Month): BQL
Related substance (%) by HPLC: Single largest unknown Imp ([1]; 2 Month): 0.03%
Related substance (%) by HPLC: Total Impurities ([1]; 2 Month): 0.05%
Water (%) ([1]; 2 Month): 0.89%
X-Ray Diffraction ([1]; 2 Month): Amorphous
Description ([1]; 3 Month): Pale yellow
Related substance (%) by HPLC: Impurity-AMPPP ([1]; 3 Month): BQL
Related substance (%) by HPLC: Impurity-MPMBA ([1]; 3 Month): BQL
Related substance (%) by HPLC: Impurity-Methyl Ester analouge ([1]; 3 Month): BQL
Related substance (%) by HPLC: Impurity-NMPPP ([1]; 3 Month): BQL
Related substance (%) by HPLC: Single largest unknown Imp ([1]; 3 Month): 0.03%
Related substance (%) by HPLC: Total Impurities ([1]; 3 Month): 0.07%
Water (%) ([1]; 3 Month): 0.79%
X-Ray Diffraction ([1]; 3 Month): Amorphous
Description ([1]; 6 Month): Pale yellow
Related substance (%) by HPLC: Impurity-AMPPP ([1]; 6 Month): BQL
Related substance (%) by HPLC: Impurity-MPMBA ([1]; 6 Month): BQL
Related substance (%) by HPLC: Impurity-Methyl Ester analouge ([1]; 6 Month): BQL
Related substance (%) by HPLC: Impurity-NMPPP ([1]; 6 Month): BQL
Related substance (%) by HPLC: Single largest unknown Imp ([1]; 6 Month): 0.03%
Related substance (%) by HPLC: Total Impurities ([1]; 6 Month): 0.07%
Water (%) ([1]; 6 Month): 0.95%
X-Ray Diffraction ([1]; 6 Month): Amorphous
hygroscopicity [2]: very hygroscopic
Description ([3]; 1 Month): Pale yellow
Related substance (%) by HPLC: Impurity-AMPPP ([3]; 1 Month): BQL
Related substance (%) by HPLC: Impurity-MPMBA ([3]; 1 Month): BQL
Related substance (%) by HPLC: Impurity-Methyl Ester analouge ([3]; 1 Month): BQL
Related substance (%) by HPLC: Impurity-NMPPP ([3]; 1 Month): BQL
Related substance (%) by HPLC: Single largest unknown Imp ([3]; 1 Month): 0.03%
Related substance (%) by HPLC: Total Impurities ([3]; 1 Month): 0.04%
Water (%) ([3]; 1 Month): 0.72%
X-Ray Diffraction ([3]; 1 Month): Amorphous
Description ([3]; 2 Months): Pale yellow
Related substance (%) by HPLC: Impurity-AMPPP ([3]; 2 Months): BQL
Related substance (%) by HPLC: Impurity-MPMBA ([3]; 2 Months): BQL
Related substance (%) by HPLC: Impurity-Methyl Ester analouge ([3]; 2 Months): BQL
Related substance (%) by HPLC: Impurity-NMPPP ([3]; 2 Months): BQL
Related substance (%) by HPLC: Single largest unknown Imp ([3]; 2 Months): 0.03%
Related substance (%) by HPLC: Total Impurities ([3]; 2 Months): 0.04%
Water (%) ([3]; 2 Months): 0.64%
X-Ray Diffraction ([3]; 2 Months): Amorphous
Description ([3]; 3 Months): Pale yellow
Related substance (%) by HPLC: Impurity-AMPPP ([3]; 3 Months): BQL
Related substance (%) by HPLC: Impurity-MPMBA ([3]; 3 Months): BQL
Related substance (%) by HPLC: Impurity-Methyl Ester analouge ([3]; 3 Months): BQL
Related substance (%) by HPLC: Impurity-NMPPP ([3]; 3 Months): BQL
Related substance (%) by HPLC: Single largest unknown Imp ([3]; 3 Months): 0.03%
Related substance (%) by HPLC: Total Impurities ([3]; 3 Months): 0.05%
Water (%) ([3]; 3 Months): 0.65%
X-Ray Diffraction ([3]; 3 Months): Amorphous
Description ([3]; 6 Months): Pale yellow
Related substance (%) by HPLC: Impurity-AMPPP ([3]; 6 Months): BQL
Related substance (%) by HPLC: Impurity-MPMBA ([3]; 6 Months): BQL
Related substance (%) by HPLC: Impurity-Methyl Ester analouge ([3]; 6 Months): BQL
Related substance (%) by HPLC: Impurity-NMPPP ([3]; 6 Months): BQL
Related substance (%) by HPLC: Single largest unknown Imp ([3]; 6 Months): 0.03%
Related substance (%) by HPLC: Total Impurities ([3]; 6 Months): 0.06%
Water (%) ([3]; 6 Months): 0.69%
X-Ray Diffraction ([3]; 6 Months): Amorphous
Compound: Cc1ccc(NC(=O)c2ccc(CN3CCN(C)CC3)cc2)cc1Nc1nccc(-c2cccnc2)n1 [amorphous imatinib mesylate, Imatinib mesylate]
